# Laboratory results as given in patent US12077503B2, “Substituted cyclic amides and their use as herbicides” (FMC CORPORATION, priority 2015, dated 2024).
# Tests used:
# Assay type in all cases: in vivo
# [1] = test system: Galium (catchweed bedstraw, Galium aparine); experiment: Test A postemergence
# Description: (§1) Seeds of plant species selected from barnyardgrass (Echinochloa crus-galli), Kochia (Kochia scoparia), ragweed (common ragweed, Ambrosia elatior), ryegrass, Italian (Italian ryegrass, Lolium multiflorum), crabgrass, large (Digitaria sanguinalis), giant foxtail (Setaria faberii), green foxtail (Setaria viridis), morningglory (Ipomoea spp.), pigweed (Amaranthus retroflexus), velvetleaf (Abutilon theophrasti), wheat (Triticum aestivum), and corn (Zea mays) were planted into a blend of loam soil and sand and treated preemergence with a directed soil spray using test chemicals formulated in anon-phytotoxic solvent mixture which included a surfactant.
# (§2) At the same time, plants selected from these crop and weed species and also blackgrass (Alopecurus myosuroides), and Galium (catchweed bedstraw, Galium aparine) were planted in pots containing the same blend of loam soil and sand and treated with postemergence applications of test chemicals formulated in the same manner. Plants ranged in height from 2 to 10 cm and were in the one- to two-leaf stage for the postemergence treatment. Treated plants and untreated controls were maintained in a greenhouse for approximately 10 d, after which time all treated plants were compared to untreated controls and visually evaluated for injury. Plant response ratings, summarized in Table A, are based on a 0 to 100 scale where 0 is no effect and 100 is complete control. A dash (-) response means no test result.
# [2] = test system: wheat (Triticum aestivum); experiment: Test A postemergence
# Description: as §1, §2
# [3] = test system: blackgrass (Alopecurus myosuroides); experiment: Test A postemergence
# Description: as §1, §2
# [4] = test system: ragweed (common ragweed, Ambrosia elatior); experiment: Test A postemergence
# Description: as §1, §2
# [5] = test system: barnyardgrass (Echinochloa crus-galli); experiment: Test A postemergence
# Description: as §1, §2
# [6] = test system: giant foxtail (Setaria faberii); experiment: Test A postemergence
# Description: as §1, §2
# [7] = test system: ryegrass, Italian (Italian ryegrass, Lolium multiflorum); experiment: Test A postemergence
# Description: as §1, §2
# corn (Zea mays) = experiment: Test A postemergence
# Description: as §1, §2
# [8] = test system: pigweed (Amaranthus retroflexus); experiment: Test A postemergence
# Description: as §1, §2
# Kochia (Kochia scoparia) [9] = experiment: Test A postemergence
# Description: as §1, §2
# [10] = test system: ragweed (common ragweed, Ambrosia elatior); experiment: Test A preemergence; settings: for Plant response rating, Ragweed: 125 g ai/ha, 0 to 100 scale (0 no effect, 100 complete control)
# Description: as §1, §2
# [11] = test system: barnyardgrass (Echinochloa crus-galli); experiment: Test A preemergence
# Description: as §1, §2
# [12] = test system: giant foxtail (Setaria faberii); experiment: Test A preemergence; settings: for Plant response rating, Foxtail, Giant: 125 g ai/ha, 0 to 100 scale (0 no effect, 100 complete control)
# Description: as §1, §2
# [13] = test system: ryegrass, Italian (Italian ryegrass, Lolium multiflorum); experiment: Test A preemergence; settings: for Plant response rating, Ryegrass, Italian: 125 g ai/ha, 0 to 100 scale (0 no effect, 100 complete control)
# Description: as §1, §2
# [14] = test system: pigweed (Amaranthus retroflexus); experiment: Test A preemergence
# Description: as §1, §2
# Kochia (Kochia scoparia) [15] = experiment: Test A preemergence
# Description: as §1, §2
# rice (Oryra sativa) = experiment: Test B flooded paddy test; settings: Flood, 250 g ai/ha, 0 to 100 scale where 0 is no effect and 100 is complete control
# Experimental: (§3) Plant species in the flooded paddy test selected from rice (Oryra sativa), sedge, umbrella (small-flower umbrella sedge, Cyperus difformis), ducksalad (Heteranthera limosa), and barnyardgrass (Echinochloa crus-galli) were grown to the 2-leaf stage for testing. At time of treatment, test pots were flooded to 3 cm above the soil surface, treated by application of test compounds directly to the paddy water, and then maintained at that water depth for the duration of the test. Treated plants and controls were maintained in a greenhouse for 13 to 15 d, after which time all species were compared to controls and visually evaluated. Plant response ratings, summarized in Table B, are based on a scale of 0 to 100 where 0 is no effect and 100 is complete control. A dash (-) response means no test result.
# [16] = test system: sedge, umbrella (small-flower umbrella sedge, Cyperus difformis); experiment: Test B flooded paddy test; settings: Flood, 250 g ai/ha
# Experimental: as §3
# [17] = test system: barnyardgrass (Echinochloa crus-galli); experiment: Test B flooded paddy test; settings: Flood, 250 g ai/ha, 0 to 100 scale where 0 is no effect and 100 is complete control
# Experimental: as §3
# [18] = test system: ducksalad (Heteranthera limosa); experiment: Test B flooded paddy test; settings: Flood, 250 g ai/ha, 0 to 100 scale where 0 is no effect and 100 is complete control
# Experimental: as §3
# [19] = 500 g ai/ha, postemergence, 0 to 100 scale, 0 no effect, 100 complete control
# [20] = Postemergence, 125 g ai/ha, visual injury, 0 to 100 scale (0 no effect, 100 complete control), approx. 10 d
# [21] = Preemergence, 500 g ai/ha, 0 is no effect, 100 is complete control
# [22] = 125 g ai/ha, preemergence, 0 to 100 scale (0 no effect, 100 complete control)
# [23] = 125 g ai/ha, Postemergence, visual rating about 10 d after treatment
# [24] = Postemergence, 500 g ai/ha, visual injury, 0 to 100 scale (0 no effect, 100 complete control), approx. 10 d
# [25] = 500 g ai/ha, preemergence, 0 to 100 scale where 0 is no effect and 100 is complete control
smiles,measurement,setting,value
Cc1ccc(C2CNC(=O)C2C(=O)Nc2cccc(F)c2F)cc1F (racemic) [Compound 369],"Plant response rating, Galium",[1]; [19],70
same,"Plant response rating, Galium",[1]; [20],60
same,"Plant response rating, Wheat",[2]; [19],60
same,"Plant response rating, Wheat",[2]; [20],0
same,"Plant response rating, Blackgrass",[3]; [19],70
same,"Plant response rating, Blackgrass",[3]; [20],30
same,"Plant response rating, Ragweed",[4]; [19],30
same,"Plant response rating, Ragweed",[4]; [20],0
same,"Plant response rating, Barnyardgrass",[5]; [19],90
same,"Plant response rating, Barnyardgrass",[5]; [20],90
same,"Plant response rating, Foxtail, Giant",[6]; [19],80
same,"Plant response rating, Foxtail, Giant",[6]; [20],20
same,"Plant response rating, Ryegrass, Italian",[7]; [19],50
same,"Plant response rating, Ryegrass, Italian",[7]; [20],20
same,"Plant response rating, Corn",corn (Zea mays); [19],50
same,"Plant response rating, Corn",corn (Zea mays); [20],0
same,"Plant response rating, Pigweed",[8]; [19],0
same,"Plant response rating, Pigweed",[8]; [20],0
same,"Plant response rating, Kochia",Kochia (Kochia scoparia) [9]; [19],60
same,"Plant response rating, Kochia",Kochia (Kochia scoparia) [9]; [20],20
same,"Plant response rating, Ragweed",[10]; preemergence,60
same,Ragweed plant response rating (0 to 100 scale),[10]; [21],60
same,"Plant response rating, Barnyardgrass",[11]; [22],90
same,Barnyardgrass plant response rating (0 to 100 scale),[11]; [21],90
same,"Plant response rating, Foxtail, Giant",[12]; preemergence,90
same,"Foxtail, Giant plant response rating (0 to 100 scale)",[12]; [21],90
same,"Plant response rating, Ryegrass, Italian",[13]; preemergence,0
same,"Ryegrass, Italian plant response rating (0 to 100 scale)",[13]; [21],20
same,"Plant response rating, Pigweed",[14]; [22],0
same,Pigweed plant response rating (0 to 100 scale),[14]; [21],0
same,"Plant response rating, Kochia",Kochia (Kochia scoparia) [15]; [22],50
same,Kochia plant response rating (0 to 100 scale),Kochia (Kochia scoparia) [15]; [21],40
same,"Plant response rating, Rice",rice (Oryra sativa); 13 to 15 d,0
same,"Plant response rating, Sedge, Umbrella","[16]; 0 to 100 scale where 0 is no effect and 100 is complete control, 13 to 15 d",0
same,"Plant response rating, Barnyardgrass",[17]; 13 to 15 d,20
same,"Plant response rating, Ducksalad",[18]; 13 to 15 d,100
Cc1cc([C@H]2CN(C)C(=O)[C@@H]2C(=O)Nc2ccccc2[S+](C)[O-])ccc1F (stereo partly drawn) [Compound 1313],Galium plant response rating (0 to 100 scale),[1]; [23],0
same,pest or weed control at 500 g/ha,"[1]; Galium, post-emergence, 240 h, Postemergence, 500 g ai/ha, visual injury, 0 to 100 scale (0 no effect, 100 complete control), approx. 10 d, read-out: Plant response rating, Galium",40%
same,Wheat plant response rating (0 to 100 scale),[2]; [23],0
same,"Plant response rating, Wheat",[2]; [24],0
same,pest or weed control at 125 g/ha,"[3]; Alopecurus myosuroides, post-emergence, 240 h, 125 g ai/ha, Postemergence, visual rating about 10 d after treatment, read-out: Blackgrass plant response rating (0 to 100 scale)",0%
same,"Plant response rating, Blackgrass",[3]; [24],0
same,pest or weed control at 125 g/ha,"[4]; Ambrosia artemisiifolia, post-emergence, 240 h, 125 g ai/ha, Postemergence, visual rating about 10 d after treatment, read-out: Ragweed plant response rating (0 to 100 scale)",0%
same,"Plant response rating, Ragweed",[4]; [24],0
same,pest or weed control at 125 g/ha,"[6]; Setaria faberi, post-emergence, 240 h, 125 g ai/ha, Postemergence, visual rating about 10 d after treatment, read-out: Foxtail, Giant plant response rating (0 to 100 scale)",90%
same,pest or weed control at 500 g/ha,"[6]; Setaria faberi, post-emergence, 240 h, Postemergence, 500 g ai/ha, visual injury, 0 to 100 scale (0 no effect, 100 complete control), approx. 10 d, read-out: Plant response rating, Foxtail, Giant",90%
same,pest or weed control at 125 g/ha,"[7]; Lolium multiflorum, post-emergence, 240 h, 125 g ai/ha, Postemergence, visual rating about 10 d after treatment, read-out: Ryegrass, Italian plant response rating (0 to 100 scale)",0%
same,pest or weed control at 500 g/ha,"[7]; Lolium multiflorum, post-emergence, 240 h, Postemergence, 500 g ai/ha, visual injury, 0 to 100 scale (0 no effect, 100 complete control), approx. 10 d, read-out: Plant response rating, Ryegrass, Italian",0%
same,Corn plant response rating (0 to 100 scale),corn (Zea mays); [23],0
same,"Plant response rating, Corn",corn (Zea mays); [24],0
same,pest or weed control at 125 g/ha,"[8]; Amaranthus retroflexus, post-emergence, 240 h, 125 g ai/ha, Postemergence, visual rating about 10 d after treatment, read-out: Pigweed plant response rating (0 to 100 scale)",0%
same,"Plant response rating, Pigweed",[8]; [24],0
same,Kochia plant response rating (0 to 100 scale),Kochia (Kochia scoparia) [9]; [23],20
same,pest or weed control at 500 g/ha,"Kochia (Kochia scoparia) [9]; Bassia scoparia, post-emergence, 240 h, Postemergence, 500 g ai/ha, visual injury, 0 to 100 scale (0 no effect, 100 complete control), approx. 10 d, read-out: Plant response rating, Kochia",50%
same,Ragweed plant response rating,[10]; [25],0
same,"Plant response rating, Ragweed",[10]; Preemergence,0
same,pest or weed control at 500 g/ha,"[11]; Echinochloa crus-galli, pre-emergence, 240 h, 500 g ai/ha, preemergence, 0 to 100 scale where 0 is no effect and 100 is complete control, read-out: Barnyardgrass plant response rating",100%
same,pest or weed control at 125 g/ha,"[11]; Echinochloa crus-galli, pre-emergence, 240 h, Preemergence, 125 g ai/ha, 0 to 100 scale (0 no effect, 100 complete control), read-out: Plant response rating, Barnyardgrass",90%
same,"Plant response rating, Foxtail, Giant",[12]; Preemergence,20
same,pest or weed control at 500 g/ha,"[12]; Setaria faberi, pre-emergence, 240 h, 500 g ai/ha, preemergence, 0 to 100 scale where 0 is no effect and 100 is complete control, read-out: Foxtail, Giant plant response rating",80%
same,"Plant response rating, Ryegrass, Italian",[13]; Preemergence,0
same,Pigweed plant response rating,[14]; [25],0
same,pest or weed control at 125 g/ha,"[14]; Amaranthus retroflexus, pre-emergence, 240 h, Preemergence, 125 g ai/ha, 0 to 100 scale (0 no effect, 100 complete control), read-out: Plant response rating, Pigweed",0%
same,pest or weed control at 500 g/ha,"Kochia (Kochia scoparia) [15]; Bassia scoparia, pre-emergence, 240 h, 500 g ai/ha, preemergence, 0 to 100 scale where 0 is no effect and 100 is complete control, read-out: Kochia plant response rating",100%
same,pest or weed control at 125 g/ha,"Kochia (Kochia scoparia) [15]; Bassia scoparia, pre-emergence, 240 h, Preemergence, 125 g ai/ha, 0 to 100 scale (0 no effect, 100 complete control), read-out: Plant response rating, Kochia",90%
same,pest or weed control at 250 g/ha,"rice (Oryra sativa); Oryza sativa, read-out: Rice plant response rating",0%
same,pest or weed control at 250 g/ha,"[16]; Cyperus difformis, 360 h, visually evaluated after 13 to 15 d, read-out: Plant response rating, Sedge, Umbrella (0 to 100 scale where 0 is no effect and 100 is complete control)",0%
same,Barnyardgrass plant response rating,[17],25
same,Ducksalad plant response rating,[18],70
